Measured values as given in publication PMC8500670, “A selective WDR5 degrader inhibits acute myeloid leukemia in patient-derived mouse models” (Science translational medicine, 2021).

Tests used:
Experiment in all cases: biochemical
Set-up in all cases: kinase selectivity panel, activity as per cent of control, single concentration in duplicate
Details in all cases: read-out: % of control remaining
[1] = target: PAK4(h) (Homo sapiens, UniProt O96013)
Description: (§1) We next assessed selectivity of MS67 against 22 protein methyltransferases (table S2) and a broad panel of common drug targets including 45 kinases (table S3) and 44 G protein–coupled receptors (GPCR), ion channels, and transporters (table S4). […] We subsequently determined that MS67 had moderate binding affinity (Ki = 1.0 ± 0.8 μM) to Sigma 2 receptor (fig. S10).

[2] = target: EphA2(h) (Homo sapiens, UniProt P29317)
Description: as §1

[3] = target: T1, MAPKAP-K2(h) (Homo sapiens, UniProt P49137)
T1 construct: gene MAPKAPK2
Description: as §1

[4] = target: T2, SGK(h) (Homo sapiens, UniProt O00141)
T2 construct: gene SGK1
Description: as §1

[5] = target: MARK1(h) (Homo sapiens, UniProt Q9P0L2)
Description: as §1

[6] = target: T3, PKA(h) (Homo sapiens, UniProt P17612)
T3 construct: gene PRKACA
Description: as §1

[7] = target: T4, Pim-2(h) (Homo sapiens, UniProt Q9P1W9)
T4 construct: gene PIM2
Description: as §1

[8] = target: MAP4K4(h) (Homo sapiens, UniProt O95819)
Description: as §1

[9] = target: T5, CaMKIIα(h) (Homo sapiens, UniProt Q9UQM7)
T5 construct: gene CAMK2A
Description: as §1

[10] = target: T6, PKBα(h) (Homo sapiens, UniProt P31749)
T6 construct: gene AKT1
Description: as §1

[11] = target: Met(h) (Homo sapiens, UniProt P08581)
Description: as §1

[12] = target: T7, CHK2(h) (Homo sapiens, UniProt O96017)
T7 construct: gene CHEK2
Description: as §1

[13] = target: EphA3(h) (Homo sapiens, UniProt P29320)
Description: as §1

[14] = target: T8, TrkA(h) (Homo sapiens, UniProt P04629)
T8 construct: gene NTRK1
Description: as §1

[15] = target: FGFR3(h) (Homo sapiens, UniProt P22607)
Description: as §1

[16] = target: CDK1/cyclinB(h) (Homo sapiens, UniProt P06493)
Description: as §1

[17] = target: JAK3(h) (Homo sapiens, UniProt P52333)
Description: as §1

[18] = target: T9, Abl(h) (Homo sapiens, UniProt P00519)
T9 construct: gene ABL1
Description: as §1

[19] = target: CDK2/cyclinA(h) (Homo sapiens, UniProt P24941)
Description: as §1

[20] = target: T10, TAO2(h) (Homo sapiens, UniProt Q9UL54)
T10 construct: gene TAOK2
Description: as §1

[21] = target: T11, ROCK-I(h) (Homo sapiens, UniProt Q13464)
T11 construct: gene ROCK1
Description: as §1

[22] = target: T12, CHK1(h) (Homo sapiens, UniProt O14757)
T12 construct: gene CHEK1
Description: as §1

[23] = target: T13, SIK(h) (Homo sapiens, UniProt P57059)
T13 construct: gene SIK1
Description: as §1

[24] = target: PAK2(h) (Homo sapiens, UniProt Q13177)
Description: as §1

[25] = target: FGFR2(h) (Homo sapiens, UniProt P21802)
Description: as §1

[26] = target: T14, Mnk2(h) (Homo sapiens, UniProt Q9HBH9)
T14 construct: gene MKNK2
Description: as §1

Sequence of FGFR2(h) (P21802 whole entry): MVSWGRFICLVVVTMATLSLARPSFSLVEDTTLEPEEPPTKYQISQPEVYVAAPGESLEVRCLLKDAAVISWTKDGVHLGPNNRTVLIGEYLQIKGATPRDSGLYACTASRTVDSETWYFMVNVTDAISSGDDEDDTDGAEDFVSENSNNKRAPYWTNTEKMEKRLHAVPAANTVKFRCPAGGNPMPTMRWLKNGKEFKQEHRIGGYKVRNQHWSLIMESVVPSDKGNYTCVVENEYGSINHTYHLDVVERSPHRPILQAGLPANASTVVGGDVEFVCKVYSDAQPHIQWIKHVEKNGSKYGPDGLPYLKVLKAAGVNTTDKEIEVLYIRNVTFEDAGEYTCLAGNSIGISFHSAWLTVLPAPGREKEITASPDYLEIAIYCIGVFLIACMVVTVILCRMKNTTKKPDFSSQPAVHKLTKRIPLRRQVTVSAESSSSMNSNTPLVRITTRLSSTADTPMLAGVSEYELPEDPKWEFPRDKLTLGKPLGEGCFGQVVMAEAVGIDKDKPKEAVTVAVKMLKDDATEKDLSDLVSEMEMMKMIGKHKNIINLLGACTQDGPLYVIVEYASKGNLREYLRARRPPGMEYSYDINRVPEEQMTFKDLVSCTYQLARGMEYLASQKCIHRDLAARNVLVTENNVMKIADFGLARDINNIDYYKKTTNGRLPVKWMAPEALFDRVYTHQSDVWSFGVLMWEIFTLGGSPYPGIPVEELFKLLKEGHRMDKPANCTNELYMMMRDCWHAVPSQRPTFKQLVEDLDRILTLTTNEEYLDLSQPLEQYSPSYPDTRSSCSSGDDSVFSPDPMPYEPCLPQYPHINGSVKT
T4 sequence (Q9P1W9 whole entry): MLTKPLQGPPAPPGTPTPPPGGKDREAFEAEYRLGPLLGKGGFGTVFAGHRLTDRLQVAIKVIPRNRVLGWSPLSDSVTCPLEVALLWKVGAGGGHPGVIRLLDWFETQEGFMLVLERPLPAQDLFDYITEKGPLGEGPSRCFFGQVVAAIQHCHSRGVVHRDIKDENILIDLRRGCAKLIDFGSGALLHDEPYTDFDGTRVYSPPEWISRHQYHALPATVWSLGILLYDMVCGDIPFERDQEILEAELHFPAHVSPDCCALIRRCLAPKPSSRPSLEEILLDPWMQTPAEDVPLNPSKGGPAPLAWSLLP
T14 sequence (Q9HBH9 whole entry): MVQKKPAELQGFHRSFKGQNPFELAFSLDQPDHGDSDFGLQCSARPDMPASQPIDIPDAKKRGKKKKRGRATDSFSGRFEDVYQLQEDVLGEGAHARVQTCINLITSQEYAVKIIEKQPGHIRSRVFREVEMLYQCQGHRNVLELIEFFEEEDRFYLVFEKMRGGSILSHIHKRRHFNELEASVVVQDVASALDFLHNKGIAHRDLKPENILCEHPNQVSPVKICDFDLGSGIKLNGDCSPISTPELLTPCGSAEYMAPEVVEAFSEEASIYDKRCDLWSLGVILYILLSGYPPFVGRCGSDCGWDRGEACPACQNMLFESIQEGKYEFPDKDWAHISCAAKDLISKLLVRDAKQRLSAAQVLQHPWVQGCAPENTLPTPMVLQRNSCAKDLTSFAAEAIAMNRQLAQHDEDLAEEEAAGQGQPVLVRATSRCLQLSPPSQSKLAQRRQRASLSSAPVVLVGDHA
T6 sequence (P31749 whole entry): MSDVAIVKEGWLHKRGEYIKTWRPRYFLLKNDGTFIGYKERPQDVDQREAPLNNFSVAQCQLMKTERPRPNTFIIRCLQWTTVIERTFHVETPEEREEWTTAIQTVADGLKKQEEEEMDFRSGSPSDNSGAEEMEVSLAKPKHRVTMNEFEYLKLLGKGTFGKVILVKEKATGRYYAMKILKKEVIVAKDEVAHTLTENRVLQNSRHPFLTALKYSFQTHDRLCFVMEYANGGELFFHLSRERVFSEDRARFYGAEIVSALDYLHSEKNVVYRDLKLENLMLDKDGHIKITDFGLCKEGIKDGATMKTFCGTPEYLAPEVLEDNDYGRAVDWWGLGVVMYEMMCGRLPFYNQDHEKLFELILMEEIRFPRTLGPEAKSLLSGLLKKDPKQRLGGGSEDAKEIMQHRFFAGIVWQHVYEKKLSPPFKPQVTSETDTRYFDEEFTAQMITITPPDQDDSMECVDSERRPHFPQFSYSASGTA
T2 sequence (O00141 whole entry): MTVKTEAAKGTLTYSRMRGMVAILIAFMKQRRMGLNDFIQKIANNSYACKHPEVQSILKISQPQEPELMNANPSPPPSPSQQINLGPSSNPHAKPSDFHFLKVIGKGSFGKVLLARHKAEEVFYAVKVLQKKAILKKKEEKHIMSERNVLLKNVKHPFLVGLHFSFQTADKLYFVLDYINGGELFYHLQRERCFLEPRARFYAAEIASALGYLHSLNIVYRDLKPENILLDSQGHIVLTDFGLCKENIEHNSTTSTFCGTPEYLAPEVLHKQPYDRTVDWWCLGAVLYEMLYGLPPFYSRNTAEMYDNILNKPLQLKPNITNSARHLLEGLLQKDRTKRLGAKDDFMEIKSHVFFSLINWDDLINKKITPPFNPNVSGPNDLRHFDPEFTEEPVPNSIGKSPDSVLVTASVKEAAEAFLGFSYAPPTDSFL
Sequence of PAK2(h) (Q13177 whole entry): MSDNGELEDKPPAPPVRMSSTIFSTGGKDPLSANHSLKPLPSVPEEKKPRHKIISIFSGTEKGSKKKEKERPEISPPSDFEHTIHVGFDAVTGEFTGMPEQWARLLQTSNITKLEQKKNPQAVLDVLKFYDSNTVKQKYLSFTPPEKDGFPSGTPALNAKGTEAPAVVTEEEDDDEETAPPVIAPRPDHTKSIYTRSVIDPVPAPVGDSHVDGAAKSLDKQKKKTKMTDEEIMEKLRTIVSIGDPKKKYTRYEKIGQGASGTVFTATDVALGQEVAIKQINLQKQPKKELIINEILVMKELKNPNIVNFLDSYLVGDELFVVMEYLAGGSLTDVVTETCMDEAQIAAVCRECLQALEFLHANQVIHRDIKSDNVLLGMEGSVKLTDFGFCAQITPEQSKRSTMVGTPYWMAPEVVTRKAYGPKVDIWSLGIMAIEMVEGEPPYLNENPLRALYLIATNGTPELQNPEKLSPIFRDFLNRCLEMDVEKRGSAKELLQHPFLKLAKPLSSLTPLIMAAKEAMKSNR
Sequence of JAK3(h) (P52333 whole entry): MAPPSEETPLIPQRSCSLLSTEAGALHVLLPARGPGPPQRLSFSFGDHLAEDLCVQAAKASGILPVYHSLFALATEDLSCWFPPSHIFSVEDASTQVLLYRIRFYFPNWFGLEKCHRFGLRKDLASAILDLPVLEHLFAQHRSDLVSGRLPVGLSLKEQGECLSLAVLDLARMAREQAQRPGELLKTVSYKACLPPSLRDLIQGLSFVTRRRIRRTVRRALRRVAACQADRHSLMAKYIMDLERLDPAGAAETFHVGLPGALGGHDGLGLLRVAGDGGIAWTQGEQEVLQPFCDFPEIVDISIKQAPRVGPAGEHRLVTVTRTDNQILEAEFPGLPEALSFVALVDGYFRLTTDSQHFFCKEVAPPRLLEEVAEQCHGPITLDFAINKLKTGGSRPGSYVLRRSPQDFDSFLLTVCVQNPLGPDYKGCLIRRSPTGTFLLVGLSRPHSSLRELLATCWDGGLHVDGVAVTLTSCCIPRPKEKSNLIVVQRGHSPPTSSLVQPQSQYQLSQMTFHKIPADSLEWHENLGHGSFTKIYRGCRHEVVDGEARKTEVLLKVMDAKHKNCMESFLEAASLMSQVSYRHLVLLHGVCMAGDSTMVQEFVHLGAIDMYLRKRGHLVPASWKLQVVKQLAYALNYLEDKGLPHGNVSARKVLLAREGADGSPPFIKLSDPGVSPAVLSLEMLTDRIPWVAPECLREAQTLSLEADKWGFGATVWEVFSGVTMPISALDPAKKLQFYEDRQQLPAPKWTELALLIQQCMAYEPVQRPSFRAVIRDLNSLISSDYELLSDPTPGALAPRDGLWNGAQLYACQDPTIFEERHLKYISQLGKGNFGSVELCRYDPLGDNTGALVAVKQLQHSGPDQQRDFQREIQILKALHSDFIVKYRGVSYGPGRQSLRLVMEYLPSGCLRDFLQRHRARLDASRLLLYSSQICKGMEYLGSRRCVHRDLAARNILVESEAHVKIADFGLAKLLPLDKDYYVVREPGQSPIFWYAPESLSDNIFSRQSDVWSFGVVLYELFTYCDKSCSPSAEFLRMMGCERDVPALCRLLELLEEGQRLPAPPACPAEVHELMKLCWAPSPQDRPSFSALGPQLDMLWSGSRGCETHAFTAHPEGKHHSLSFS
Sequence of PAK4(h) (O96013 whole entry): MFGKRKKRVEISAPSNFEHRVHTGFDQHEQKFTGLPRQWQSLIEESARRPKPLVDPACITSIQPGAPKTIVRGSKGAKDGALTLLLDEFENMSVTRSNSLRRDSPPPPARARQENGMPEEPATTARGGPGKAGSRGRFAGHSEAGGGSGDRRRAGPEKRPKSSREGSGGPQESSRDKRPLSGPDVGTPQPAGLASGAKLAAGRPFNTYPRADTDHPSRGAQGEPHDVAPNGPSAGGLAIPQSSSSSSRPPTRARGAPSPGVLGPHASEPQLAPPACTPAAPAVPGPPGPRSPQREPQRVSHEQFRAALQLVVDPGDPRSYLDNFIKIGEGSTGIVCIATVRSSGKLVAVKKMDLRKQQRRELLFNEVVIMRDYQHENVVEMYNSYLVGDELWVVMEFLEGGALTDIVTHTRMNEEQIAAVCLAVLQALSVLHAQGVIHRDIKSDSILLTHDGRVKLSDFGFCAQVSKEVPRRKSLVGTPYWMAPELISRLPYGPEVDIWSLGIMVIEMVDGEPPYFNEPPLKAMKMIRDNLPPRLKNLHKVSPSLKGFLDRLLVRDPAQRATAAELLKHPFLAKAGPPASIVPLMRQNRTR

Cc1ncsc1-c1ccc([C@H](C)NC(=O)[C@@H]2C[C@@H](O)CN2C(=O)[C@@H](NC(=O)CNC(=O)c2ccc(F)c(-c3ccc(N4C[C@@H](C)N(C)[C@@H](C)C4)c(NC(=O)c4c[nH]c(=O)cc4C(F)(F)F)c3)c2)C(C)(C)C)cc1 [MS67]
remaining activity at 1 µM [1]: 95%
remaining activity at 1 µM [2]: 80%
remaining activity at 1 µM [3]: 104%
remaining activity at 1 µM [4]: 113%
remaining activity at 1 µM [5]: 100%
remaining activity at 1 µM [6]: 107%
remaining activity at 1 µM [7]: 99%
remaining activity at 1 µM [8]: 100%
remaining activity at 1 µM [9]: 92%
remaining activity at 1 µM [10]: 93%
remaining activity at 1 µM [11]: 88%
remaining activity at 1 µM [12]: 97%
remaining activity at 1 µM [13]: 125%
remaining activity at 1 µM [14]: 94%
remaining activity at 1 µM [15]: 104%
remaining activity at 1 µM [16]: 94%
remaining activity at 1 µM [17]: 100%
remaining activity at 1 µM [18]: 99%
remaining activity at 1 µM [19]: 91%
remaining activity at 1 µM [20]: 95%
remaining activity at 1 µM [21]: 109%
remaining activity at 1 µM [22]: 78%
remaining activity at 1 µM [23]: 84%
remaining activity at 1 µM [24]: 89%
remaining activity at 1 µM [25]: 84%
remaining activity at 1 µM [26]: 125%
